Test results published in the NIST ThermoML archive (doi:10.1016/j.jct.2015.07.014).
± gives the expanded uncertainty stated by the source.

Experiment: xn = mol fraction of the nth substance listed
Details: Fluid (supercritical or subcritical phases), Buoyancy - hydrostatic balance with magnetic suspension - one sinker

[Ar] [argon] + O=C=O
Details	mass density [kg/m3]
298.12 K, 30871 kPa, x1 = 0.99	502.471 ± 0.67
298.17 K, 30944 kPa, x1 = 0.95	514.698 ± 0.69
298.18 K, 28957 kPa, x1 = 0.99	476.725 ± 0.65
298.19 K, 10975 kPa, x1 = 0.99	187.045 ± 0.25
298.19 K, 12973 kPa, x1 = 0.99	222.038 ± 0.29
298.19 K, 14969 kPa, x1 = 0.99	256.759 ± 0.34
298.19 K, 16969 kPa, x1 = 0.99	291.075 ± 0.39
298.19 K, 18969 kPa, x1 = 0.99	324.674 ± 0.44
298.19 K, 26962 kPa, x1 = 0.99	448.747 ± 0.61
298.2 K, 20967 kPa, x1 = 0.99	357.351 ± 0.49
298.2 K, 22966 kPa, x1 = 0.99	389.003 ± 0.53
298.2 K, 24964 kPa, x1 = 0.99	419.491 ± 0.57
298.22 K, 10976 kPa, x1 = 0.95	190.182 ± 0.25
298.23 K, 12976 kPa, x1 = 0.95	226.201 ± 0.3
298.23 K, 14974 kPa, x1 = 0.95	261.987 ± 0.35
298.23 K, 16969 kPa, x1 = 0.95	297.274 ± 0.4
298.23 K, 18970 kPa, x1 = 0.95	331.923 ± 0.44
298.23 K, 20969 kPa, x1 = 0.95	365.576 ± 0.49
298.23 K, 22968 kPa, x1 = 0.95	398.09 ± 0.53
298.23 K, 24967 kPa, x1 = 0.95	429.349 ± 0.57
298.23 K, 26965 kPa, x1 = 0.95	459.226 ± 0.61
298.23 K, 28963 kPa, x1 = 0.95	487.701 ± 0.65
323.2 K, 10978 kPa, x1 = 0.99	168.714 ± 0.21
323.2 K, 24965 kPa, x1 = 0.99	375.34 ± 0.48
323.2 K, 30955 kPa, x1 = 0.99	452.317 ± 0.57
323.21 K, 14970 kPa, x1 = 0.99	230.302 ± 0.29
323.21 K, 16971 kPa, x1 = 0.99	260.652 ± 0.33
323.21 K, 18969 kPa, x1 = 0.99	290.39 ± 0.37
323.21 K, 20969 kPa, x1 = 0.99	319.49 ± 0.41
323.21 K, 22966 kPa, x1 = 0.99	347.807 ± 0.44
323.21 K, 26962 kPa, x1 = 0.99	401.924 ± 0.51
323.21 K, 28960 kPa, x1 = 0.99	427.589 ± 0.55
323.22 K, 12973 kPa, x1 = 0.99	199.627 ± 0.25
323.24 K, 24968 kPa, x1 = 0.95	382.594 ± 0.52
323.24 K, 30958 kPa, x1 = 0.95	460.997 ± 0.64
323.25 K, 16970 kPa, x1 = 0.95	265.1 ± 0.36
323.25 K, 22969 kPa, x1 = 0.95	354.46 ± 0.48
323.25 K, 28963 kPa, x1 = 0.95	435.856 ± 0.59
323.26 K, 10976 kPa, x1 = 0.95	170.993 ± 0.23
323.26 K, 12974 kPa, x1 = 0.95	202.641 ± 0.27
323.26 K, 14973 kPa, x1 = 0.95	234.077 ± 0.32
323.27 K, 18969 kPa, x1 = 0.95	295.579 ± 0.4
323.27 K, 20973 kPa, x1 = 0.95	325.456 ± 0.44
323.27 K, 26965 kPa, x1 = 0.95	409.68 ± 0.56
348.21 K, 14972 kPa, x1 = 0.99	209.619 ± 0.26
348.21 K, 16970 kPa, x1 = 0.99	236.897 ± 0.3
348.21 K, 18972 kPa, x1 = 0.99	263.764 ± 0.33
348.22 K, 20972 kPa, x1 = 0.99	290.057 ± 0.36
348.22 K, 30956 kPa, x1 = 0.99	411.615 ± 0.51
348.23 K, 28960 kPa, x1 = 0.99	388.704 ± 0.49
348.24 K, 26963 kPa, x1 = 0.99	365.062 ± 0.46
348.25 K, 10977 kPa, x1 = 0.99	154.064 ± 0.19
348.25 K, 12974 kPa, x1 = 0.99	181.967 ± 0.23
348.25 K, 24966 kPa, x1 = 0.99	340.708 ± 0.43
348.25 K, 30958 kPa, x1 = 0.95	418.385 ± 0.56
348.26 K, 22968 kPa, x1 = 0.99	315.675 ± 0.4
348.28 K, 18972 kPa, x1 = 0.95	267.685 ± 0.35
348.28 K, 20972 kPa, x1 = 0.95	294.53 ± 0.39
348.28 K, 28962 kPa, x1 = 0.95	395.094 ± 0.52
348.29 K, 22970 kPa, x1 = 0.95	320.729 ± 0.42
348.29 K, 26966 kPa, x1 = 0.95	371.043 ± 0.49
348.3 K, 10979 kPa, x1 = 0.95	155.9 ± 0.21
348.3 K, 12976 kPa, x1 = 0.95	184.3 ± 0.24
348.3 K, 14972 kPa, x1 = 0.95	212.437 ± 0.28
348.3 K, 16971 kPa, x1 = 0.95	240.266 ± 0.31
348.31 K, 24969 kPa, x1 = 0.95	346.237 ± 0.46
373.22 K, 16970 kPa, x1 = 0.99	217.712 ± 0.27
373.22 K, 18968 kPa, x1 = 0.99	242.204 ± 0.3
373.22 K, 30957 kPa, x1 = 0.99	378.472 ± 0.47
373.23 K, 22970 kPa, x1 = 0.99	289.853 ± 0.36
373.23 K, 24965 kPa, x1 = 0.99	312.835 ± 0.39
373.23 K, 26964 kPa, x1 = 0.99	335.305 ± 0.42
373.24 K, 10977 kPa, x1 = 0.95	143.58 ± 0.19
373.24 K, 14972 kPa, x1 = 0.99	192.822 ± 0.24
373.24 K, 20969 kPa, x1 = 0.99	266.255 ± 0.33
373.24 K, 28960 kPa, x1 = 0.99	357.169 ± 0.45
373.25 K, 10978 kPa, x1 = 0.99	142.11 ± 0.18
373.25 K, 12977 kPa, x1 = 0.99	167.627 ± 0.21
373.28 K, 18969 kPa, x1 = 0.95	245.312 ± 0.32
373.29 K, 16972 kPa, x1 = 0.95	220.418 ± 0.28
373.29 K, 28963 kPa, x1 = 0.95	362.242 ± 0.47
373.29 K, 30959 kPa, x1 = 0.95	383.847 ± 0.5
373.3 K, 12975 kPa, x1 = 0.95	169.447 ± 0.22
373.31 K, 14971 kPa, x1 = 0.95	195.043 ± 0.25
373.31 K, 20969 kPa, x1 = 0.95	269.779 ± 0.35
373.31 K, 26966 kPa, x1 = 0.95	340.003 ± 0.44
373.32 K, 22966 kPa, x1 = 0.95	293.716 ± 0.38
373.32 K, 24968 kPa, x1 = 0.95	317.167 ± 0.41
398.26 K, 12977 kPa, x1 = 0.99	155.613 ± 0.2
398.28 K, 10979 kPa, x1 = 0.99	132.065 ± 0.17
398.28 K, 20968 kPa, x1 = 0.99	246.59 ± 0.31
398.28 K, 30957 kPa, x1 = 0.99	350.842 ± 0.43
398.29 K, 26962 kPa, x1 = 0.99	310.557 ± 0.39
398.29 K, 28962 kPa, x1 = 0.99	330.96 ± 0.41
398.3 K, 14970 kPa, x1 = 0.99	178.803 ± 0.22
398.3 K, 18971 kPa, x1 = 0.99	224.388 ± 0.28
398.3 K, 22969 kPa, x1 = 0.99	268.392 ± 0.33
398.3 K, 24967 kPa, x1 = 0.99	289.714 ± 0.36
398.31 K, 16969 kPa, x1 = 0.99	201.75 ± 0.25
398.31 K, 26966 kPa, x1 = 0.95	314.455 ± 0.4
398.31 K, 28963 kPa, x1 = 0.95	335.112 ± 0.42
398.33 K, 14977 kPa, x1 = 0.95	180.735 ± 0.23
398.33 K, 24965 kPa, x1 = 0.95	293.233 ± 0.37
398.33 K, 30959 kPa, x1 = 0.95	355.238 ± 0.46
398.34 K, 22971 kPa, x1 = 0.95	271.617 ± 0.34
398.35 K, 18973 kPa, x1 = 0.95	226.932 ± 0.29
398.35 K, 20972 kPa, x1 = 0.95	249.488 ± 0.32
398.36 K, 12973 kPa, x1 = 0.95	157.068 ± 0.2
398.36 K, 16970 kPa, x1 = 0.95	203.95 ± 0.26
398.37 K, 10980 kPa, x1 = 0.95	133.275 ± 0.17
423.22 K, 10980 kPa, x1 = 0.99	123.515 ± 0.16
423.22 K, 16967 kPa, x1 = 0.99	188.325 ± 0.24
423.23 K, 14969 kPa, x1 = 0.99	166.982 ± 0.21
423.24 K, 12971 kPa, x1 = 0.99	145.339 ± 0.18
423.28 K, 18967 kPa, x1 = 0.99	209.329 ± 0.26
423.3 K, 20973 kPa, x1 = 0.99	230.071 ± 0.29
423.3 K, 22965 kPa, x1 = 0.99	250.298 ± 0.31
423.3 K, 30956 kPa, x1 = 0.99	327.48 ± 0.41
423.31 K, 12974 kPa, x1 = 0.95	146.65 ± 0.18
423.32 K, 24968 kPa, x1 = 0.95	273.195 ± 0.34
423.33 K, 10981 kPa, x1 = 0.95	124.535 ± 0.16
423.33 K, 14975 kPa, x1 = 0.95	168.571 ± 0.21
423.33 K, 24964 kPa, x1 = 0.99	270.201 ± 0.34
423.33 K, 26968 kPa, x1 = 0.95	292.962 ± 0.36
423.33 K, 28959 kPa, x1 = 0.99	308.785 ± 0.39
423.34 K, 18970 kPa, x1 = 0.95	211.466 ± 0.26
423.34 K, 26961 kPa, x1 = 0.99	289.685 ± 0.36
423.34 K, 28966 kPa, x1 = 0.95	312.296 ± 0.39
423.35 K, 16970 kPa, x1 = 0.95	190.146 ± 0.24
423.35 K, 20971 kPa, x1 = 0.95	232.422 ± 0.29
423.35 K, 30960 kPa, x1 = 0.95	331.165 ± 0.41
423.36 K, 22968 kPa, x1 = 0.95	252.983 ± 0.32
